pIC50: −log10 of the molar value.
Biological target: T1, Wee1 kinase domain (Homo sapiens, UniProt P30291)
T1 construct: Wee1 kinase domain was purchased from Carna (catalog #05-177); purchased Carna 05-177
Assay: Wee1 Kinase Biochemical Assay (ADP-Glo)
Details: 15 uM ATP
Outline: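 Poly(Lys,Tyr 4:1) phosphorylation by the kinase domain is followed as ADP output (ADP-Glo) after 4 h at 25 °C, with ATP at 15 uM. Values are percent inhibition between vehicle and full-inhibition controls.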

[1] = class symbols, 1 nM Wee1 enzyme, 4 hours at 25° C.

T1 sequence (P30291 299-569 limits assumed): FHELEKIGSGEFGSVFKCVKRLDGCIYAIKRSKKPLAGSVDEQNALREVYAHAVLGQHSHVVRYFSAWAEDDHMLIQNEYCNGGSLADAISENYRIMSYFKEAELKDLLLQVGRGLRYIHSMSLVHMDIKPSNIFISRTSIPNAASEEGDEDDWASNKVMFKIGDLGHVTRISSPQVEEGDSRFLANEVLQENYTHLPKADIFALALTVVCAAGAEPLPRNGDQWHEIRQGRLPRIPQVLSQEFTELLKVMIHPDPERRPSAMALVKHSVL

pIC50 [1]	pIC50 (Wee1 kinase domain, ADP-Glo)	Compound	also measured
> 8.00		CN[C@@]1(C)CCc2ccc(N3c4nc(Nc5ccc(N6CCOCC6)cc5)ncc4[C@@]4(C)COC(C)(C)C[C@@H]34)nc21 (single isomer, unassigned) [Example 571]	
> 8.00		CC[C@@]1(O)CCc2ccc(N3c4nc(Nc5ccc(N6CCN(C)CC6)cc5)ncc4[C@@]4(C)COC(C)(C)C[C@@H]34)nc21 [Example 787, (R)-7-ethyl-2-((4bR,8aR)-4b,7,7-trimethyl-2-((4-(4-methylpiperazin-1-yl)phenyl)amino)-4b,7,8,8a-tetrahydropyrano[3′,4′:4,5]pyrrolo[2,3-d]pyrimidin-9(5H)-yl)-6,7-dihydro-5H-cyclopenta[b]pyridin-7-ol]	
> 8.00		CN1C[C@H]2C[C@@H]1CN2c1ccc(Nc2ncc3c(n2)N(c2ccccn2)[C@@H]2CC(C)(C)OC[C@]32C)cc1 [Example 801, (4bR,8aR)-4b,7,7-trimethyl-N-(4-((1R,4R)-5-methyl-2,5-diazabicyclo[2.2.1]heptan-2-yl)phenyl)-9-(pyridin-2-yl)-4b,5,7,8,8a,9-hexahydropyrano[3′,4′:4,5]pyrrolo[2,3-d]pyrimidin-2-amine]	
7.00 to 8.00		CN1CC[C@@H](Oc2ccc(Nc3ncc4c(n3)N(c3cccc(N5CCOC5=O)n3)[C@H]3CC(C)(C)OC[C@@]43C)cc2)C1 [Example 625, 3-(6-((4bS,8aS)-4b,7,7-trimethyl-2-((4-(((R)-1-methylpyrrolidin-3-yl)oxy)phenyl)amino)-4b,7,8,8a-tetrahydropyrano[3′,4′:4,5]pyrrolo[2,3-d]pyrimidin-9(5H)-yl)pyridin-2-yl)oxazolidin-2-one]	
7.00 to 8.00		CC1(C)C[C@@H]2N(c3cccc(N4CCCC4=O)n3)c3nc(Nc4ccc([C@@H]5CCNC5)cc4)ncc3[C@]2(C)CO1 [Example 633, 1-(6-((4bS,8aS)-4b,7,7-trimethyl-2-((4-((S)-pyrrolidin-3-yl)phenyl)amino)-4b,7,8,8a-tetrahydropyrano[3′,4′:4,5]pyrrolo[2,3-d]pyrimidin-9(5H)-yl)pyridin-2-yl)pyrrolidin-2-one]	
6.00 to 7.00		CC1(C)C[C@@H]2N(c3cccc(N4CCCC4=O)n3)c3nc(Nc4ccc(O[C@H]5CCNC5)cc4)ncc3[C@]2(C)CO1 [Example 621, 1-(6-((4bS,8aS)-4b,7,7-trimethyl-2-((4-(((S)-pyrrolidin-3-yl)oxy)phenyl)amino)-4b,7,8,8a-tetrahydropyrano[3′,4′:4,5]pyrrolo[2,3-d]pyrimidin-9(5H)-yl)pyridin-2-yl)pyrrolidin-2-one]	
> 8.00		CC[C@]1(O)CCc2ccc(N3c4nc(Nc5ccn(C6CCN(C)CC6)c(=O)c5)ncc4[C@@]4(C)COC(C)(C)C[C@@H]34)nc21 [Example 811, 4-(((4bR,8aR)-9-((S)-7-ethyl-7-hydroxy-6,7-dihydro-5H-cyclopenta[b]pyridin-2-yl)-4b,7,7-trimethyl-4b,5,7,8,8a,9-hexahydropyrano[3′,4′:4,5]pyrrolo[2,3-d]pyrimidin-2-yl)amino)-1-(1-methylpiperidin-4-yl)pyridin-2(1H)-one]	
6.00 to 7.00		CN[C@@H](C)c1cccc(N2c3nc(Nc4ccc(N5C[C@@H]6C[C@H]5CO6)cc4)ncc3[C@]3(C)COC(C)(C)C[C@H]23)n1 (single isomer, unassigned) [Example 580]	
6.00 to 7.00		CN1CCN(c2ccc(Nc3ncc4c(n3)N(c3cccc(N5CCOC5=O)n3)[C@H]3CC(C)(C)OC[C@@]43C)cc2)CC1 (single isomer, unassigned) [Example 576]	
> 8.00		CN1C[C@H]2C[C@@H]1CN2c1ccc(Nc2ncc3c(n2)N(c2cccc(N4C(=O)CCC4(C)C)n2)[C@@H]2CC(C)(C)OC[C@]32C)cc1 [Example 797, 5,5-dimethyl-1-(6-((4bR,8aR)-4b,7,7-trimethyl-2-((4-((1R,4R)-5-methyl-2,5-diazabicyclo[2.2.1]heptan-2-yl)phenyl)amino)-4b,7,8,8a-tetrahydropyrano[3′,4′:4,5]pyrrolo[2,3-d]pyrimidin-9(5H)-yl)pyridin-2-yl)pyrrolidin-2-one]	
7.00 to 8.00		C[C@H]1CCC(=O)N1c1cccc(N2c3nc(Nc4ccc(N5C[C@H]6C[C@@H]5CN6C)cc4)ncc3[C@]3(C)COC(C)(C)C[C@H]23)n1 [Example 656, (S)-5-methyl-1-(6-((4bS,8aS)-4b,7,7-trimethyl-2-((4-((1R,4R)-5-methyl-2,5-diazabicyclo[2.2.1]heptan-2-yl)phenyl)amino)-4b,7,8,8a-tetrahydropyrano[3′,4′:4,5]pyrrolo[2,3-d]pyrimidin-9(5H)-yl)pyridin-2-yl)pyrrolidin-2-one]	
7.00 to 8.00		CC1(C)C[C@@H]2N(c3cccc(N4CCOC4=O)n3)c3nc(Nc4ccc([C@]5(C)CCNC5)cc4)ncc3[C@]2(C)CO1 [Example 665, 3-(6-((4bS,8aS)-46,7,7-trimethyl-2-((4-((S)-3-methylpyrrolidin-3-yl)phenyl)amino)-4b,7,8,8a-tetrahydropyrano[3′,4′:4,5]pyrrolo[2,3-d]pyrimidin-9(5H)-yl)pyridin-2-yl)oxazolidin-2-one]	

Further lines, the compound ahead of its results:

Compound	pIC50 [1]	pIC50 (Wee1 kinase domain, ADP-Glo)	also measured
CN1C[C@H]2C[C@@H]1CN2c1ccc(Nc2ncc3c(n2)N(c2cccc(C(C)(C)O)n2)[C@H]2CC(C)(C)OC[C@@]32C)cc1 (single isomer, unassigned) [Example 414]	6.00 to 7.00		
CN1C[C@@H]2C[C@H]1CN2c1ccc(Nc2ncc3c(n2)N(c2cccc(N=S(C)(C)=O)n2)[C@H]2CC(C)(C)OC[C@@]32C)cc1F (single isomer, unassigned) [Example 179]		6.00 to 7.00	
CC1(C)C[C@H]2N(c3cccc(N=S(C)(C)=O)n3)c3nc(NC(=O)C4(F)CC4)ncc3[C@@]2(C)CO1 (single isomer, unassigned) [Example 410]	7.00 to 8.00		
CN1C[C@@H]2C[C@H]1CN2c1ccc(Nc2ncc3c(n2)N(c2cccc(C(F)F)n2)[C@@H]2CC(C)(C)OC[C@]32C)cc1 [Example 813, (4bR,8aR)-9-(6-(difluoromethyl)pyridin-2-yl)-4b,7,7-trimethyl-N-(4-((1S,4S)-5-methyl-2,5-diazabicyclo[2.2.1]heptan-2-yl)phenyl)-4b,5,7,8,8a,9-hexahydropyrano[3′,4′:4,5]pyrrolo[2,3-d]pyrimidin-2-amine]			pIC50 (1 nM Wee1 enzyme, 4 hours at 25° C): > 8.00
CNCc1cccc(N2c3nc(Nc4cnnc(C)c4)ncc3[C@@]3(C)COC(C)(C)C[C@@H]23)n1 (single isomer, unassigned) [Example 478]	7.00 to 8.00		
CNCc1cccc(N2c3nc(Nc4ccn(C)c(=O)c4)ncc3[C@]3(C)COC(C)(C)C[C@H]23)n1 (single isomer, unassigned) [Example 455]	≤ 6.00		
CNCc1cccc(N2c3nc(Nc4ccc(C(=O)N5CCOCC5)cc4)ncc3[C@]3(C)COC(C)(C)C[C@H]23)n1 (single isomer, unassigned) [Example 23]		6.00 to 7.00	
CNCc1cccc(N2c3nc(Nc4ccc(N5CCN(C)CC5)cc4)ncc3[C@]3(C)COC(C)(C)C[C@H]23)n1 (single isomer, unassigned) [Example 93]		7.00 to 8.00	
CNCc1cccc(N2c3nc(Nc4ccc([C@@H]5CCC(=O)N5C)nc4)ncc3[C@]3(C)COC(C)(C)C[C@H]23)n1 (single isomer, unassigned) [Example 95]		≤ 6.00	
CN1CCC(n2ccc(Nc3ncc4c(n3)N(c3cccc(N=S(C)(C)=O)n3)[C@@H]3CC(C)(C)OC[C@]43C)n2)CC1 (single isomer, unassigned) [Example 229]		7.00 to 8.00	
CNCc1cccc(N2c3nc(Nc4ccc(N5CCOC[C@@H]5C)cc4)ncc3[C@]3(C)COC(C)(C)C[C@H]23)n1 (single isomer, unassigned) [Example 475]	6.00 to 7.00		
Cc1cc(Nc2ncc3c(n2)N(c2cccc(C(C)(C)O)n2)[C@H]2CC(C)(C)OC[C@@]32C)ccc1N1C[C@H]2C[C@@H]1CN2C (single isomer, unassigned) [Example 426]	7.00 to 8.00		
CNCc1cccc(N2c3nc(Nc4ccc([C@@H]5CCNC5)cc4)ncc3[C@]3(C)COC(C)(C)C[C@H]23)n1 (single isomer, unassigned) [Example 453]	6.00 to 7.00		
CN[C@@H](C)c1cc(C)nc(N2c3nc(Nc4ccc(N5CCOCC5)cc4)ncc3[C@@]3(C)COC(C)(C)C[C@@H]23)c1 (single isomer, unassigned) [Example 560]	7.00 to 8.00		
CNCc1cccc(N2c3nc(Nc4ccc(N5C[C@@H](C)O[C@@H](C)C5)cc4)ncc3[C@]3(C)COC(C)(C)C[C@H]23)n1 [Example 19, (4bS,8aS)-N-(4-((2S,6R)-2,6-dimethylmorpholino)phenyl)-4b,7,7-trimethyl-9-(6-((methylamino)methyl)pyridin-2-yl)-4b,5,7,8,8a,9-hexahydropyrano[3′,4′:4,5]pyrrolo[2,3-d]pyrimidin-2-amine]		6.00 to 7.00	
CC1(C)C[C@@H]2N(c3cccc(N=S(C)(C)=O)n3)c3nc(Nc4ccc([C@@H]5CCCN5)nc4)ncc3[C@]2(C)CO1 (single isomer, unassigned) [Example 213]		7.00 to 8.00	
CN1CCC(n2cc(Nc3ncc4c(n3)N(c3cccc(C(C)(C)O)n3)[C@H]3CC(C)(C)OC[C@@]43C)cn2)CC1 (single isomer, unassigned) [Example 12]		6.00 to 7.00	
CN1CCC(c2cc(Nc3ncc4c(n3)N(c3cccc(N=S(C)(C)=O)n3)[C@H]3CC(C)(C)OC[C@@]43C)on2)CC1 (single isomer, unassigned) [Example 203]		6.00 to 7.00	
CN1CCC(c2ccc(Nc3ncc4c(n3)N(c3cccc(N=S(C)(C)=O)n3)[C@@H]3CC(C)(C)OC[C@]43C)cc2)CC1 (single isomer, unassigned) [Example 111]		7.00 to 8.00	
CNCc1cccc(N2c3nc(Nc4ccc(C5CCOCC5)nc4)ncc3[C@]3(C)COC(C)(C)C[C@H]23)n1 (single isomer, unassigned) [Example 55]		≤ 6.00	

Reference: US20260166039A1 (SCHRÖDINGER, INC., priority 2022, published 2026)
